The source of these data is paper PMC10673563, “In Vitro and In Vivo Biological Evaluation of Indole-thiazolidine-2,4-dione Derivatives as Tyrosinase Inhibitors” (Molecules, 2023).

One data set addresses T1, Mushroom tyrosinase (Agaricus bisporus, UniProt C7FF04).
T1 construct: purchased Sigma-Aldrich (Shanghai, China)
The data set can be described thus: Tyrosinase inhibitory activity assay (L-DOPA, absorbance 475 nm). The class given is biochemical. The following applies: for inhibition at 32 µM: initial concentration of 32 μM. As to the method:
The tyrosinase inhibitory activities of compounds 5a~5z were determined according to previous reports. In brief, 10 μL of compound was added into 140 μL of tyrosinase, incubated for 5 min at room temperature. Then, 50 μL of L-DOPA was added, followed by the measurement of absorbance change at 475 nm. The inhibition rate at different concentrations was calculated and compared to the blank control.

For data set [1], the system named is melanogenesis in B16F10 cells. Description: Melanin content in B16F10 cells. The class given is cell-based. The following applies: 16 and 32 μM, 48 h. The method, then: B16F10 cell treatment was consistent with the above method. The harvested cells were suspended into NaOH (1 M, 200 μL). After boiling for 1 h, the mixture was measured to determine the absorbance change at wavelength of 405 nm.

Data set [2] has as its system tyrosinase activity in zebrafish. The data set can be described thus: Tyrosinase activity in zebrafish. The note with it: zebrafish embryos. The class given is in vivo. As to the method:
The embryos treated with compound 5w or kojic acid were lysed in PBS, followed by centrifugation to obtain the supernatant. The appropriate amount of supernatant, equal L-DOPA (5 mg/mL), was added and the absorbance at 475 nm was determined.

The test system of data set [3] is tyrosinase activity in B16F10 cells. The data set can be described thus: Tyrosinase activity in B16F10 cells. The following applies: 16 and 32 μM, 48 h. The class given is cell-based. As to the method:
The tyrosinase inhibitory activity of 5w in B16F10 cells was determined. B16F10 cells (1 × 10^5 cells/well) were seeded into the 6-well plate for 24 h and subsequently treated with compound 5w or kojic acid for another 48 h. Then, the harvested cells were suspended into the appropriate amount of Triton X-100 (1%) and frozen for 1 h at −80 °C. After it had thawed, the mixture was centrifuged to collect the supernatant. Then, its protein concentration was determined using a BCA Kit. After 20 μL of L-DOPA (10 mM) was added into 80 μL of protein solution, the absorbance change at 475 nm was measured.

For data set [4], the system named is melanogenesis in zebrafish. Description: Melanin content in zebrafish (microscope, Image J). The class given is in vivo. The note with it: compared to control embryo. The method, then: The embryos treated with compound 5w or kojic acid were observed under a microscope and the melanin content was assayed using Image J software.
In the next data set the test system is B16F10 cells. The data set can be described thus: Cell cytotoxicity (MTT). The class given is cell-based. The note with it: 4~32 μM, 48 h. The method, then: The effects of compound 5w and kojic acid on the cells’ viability were determined using the MTT method. B16F10 cells (5000 cells/well) were seeded into the 96-well plate for 24 h, followed by the treatment of compound 5w or kojic acid (4~32 μM) for another 48 h. Then, MTT solution (0.5 mg/mL) was added and incubated for 4 h. DMSO (100 μL) was used to dissolve the violet precipitates, and then the mixture was measured for its absorbance at 570 nm.

T1 sequence (C7FF04 1-392): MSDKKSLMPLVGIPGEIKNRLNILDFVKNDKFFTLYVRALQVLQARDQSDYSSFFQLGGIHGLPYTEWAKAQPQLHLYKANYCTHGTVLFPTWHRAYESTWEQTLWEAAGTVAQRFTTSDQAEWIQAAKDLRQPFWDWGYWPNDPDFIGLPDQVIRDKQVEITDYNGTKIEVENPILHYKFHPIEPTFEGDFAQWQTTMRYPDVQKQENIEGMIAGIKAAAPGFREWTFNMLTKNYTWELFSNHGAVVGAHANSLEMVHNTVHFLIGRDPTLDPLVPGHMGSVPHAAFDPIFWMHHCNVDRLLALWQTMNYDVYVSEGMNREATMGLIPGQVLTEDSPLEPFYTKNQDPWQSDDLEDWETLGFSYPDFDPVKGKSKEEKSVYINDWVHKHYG

On to `O=C(CN1C(=O)S/C(=C\c2ccccc2)C1=O)NCCc1c[nH]c2ccccc12` [5a], for which the inhibition – broadly, the percentage by which the read-out fell short of the control – at 32 µM at Mushroom tyrosinase is 14.2%.
Molecule `Cc1ccccc1/C=C1\SC(=O)N(CC(=O)NCCc2c[nH]c3ccccc23)C1=O` [5b] came in with an inhibition at 32 µM against Mushroom tyrosinase of 19.3%.
As to `Cc1cccc(/C=C2\SC(=O)N(CC(=O)NCCc3c[nH]c4ccccc34)C2=O)c1` [5c], at 32 µM the inhibition against Mushroom tyrosinase was 33.2%.
Still for that read-out and setting: the figure for `Cc1ccc(/C=C2\SC(=O)N(CC(=O)NCCc3c[nH]c4ccccc34)C2=O)cc1` [5d] is 15.1%.
The same measure, in the same setting: the figure for `O=C(CN1C(=O)S/C(=C\c2ccccc2F)C1=O)NCCc1c[nH]c2ccccc12` [5e] is 16.5%; for `O=C(CN1C(=O)S/C(=C\c2cccc(F)c2)C1=O)NCCc1c[nH]c2ccccc12` [5f] it is 32.6%; for `O=C(CN1C(=O)S/C(=C\c2ccc(F)cc2)C1=O)NCCc1c[nH]c2ccccc12` [5g] it is 27.4%.
In turn, `O=C(CN1C(=O)S/C(=C\c2ccccc2Cl)C1=O)NCCc1c[nH]c2ccccc12` [5h] displayed an inhibition at 32 µM against Mushroom tyrosinase of 16.8%.
`O=C(CN1C(=O)S/C(=C\c2cccc(Cl)c2)C1=O)NCCc1c[nH]c2ccccc12` [5i] gave an inhibition at 32 µM against Mushroom tyrosinase of 37.6%.
The same measure, in the same setting: the figure for `O=C(CN1C(=O)S/C(=C\c2ccc(Cl)cc2)C1=O)NCCc1c[nH]c2ccccc12` [5j] is 36.6%; for `O=C(CN1C(=O)S/C(=C\c2ccccc2Br)C1=O)NCCc1c[nH]c2ccccc12` [5k] it is 31.7%.
Turning to `O=C(CN1C(=O)S/C(=C\c2cccc(Br)c2)C1=O)NCCc1c[nH]c2ccccc12` [5l], on Mushroom tyrosinase, the IC50 – broadly, the concentration that inhibits the measured activity by half – was determined as 13.3 µM and the inhibition at 32 µM was above 70%.
For `O=C(CN1C(=O)S/C(=C\c2ccc(Br)cc2)C1=O)NCCc1c[nH]c2ccccc12` [5m], testing at 32 µM at Mushroom tyrosinase gave an inhibition of 19.5%.
Still for that read-out and setting: the figure for `O=C(CN1C(=O)S/C(=C\c2ccccc2C(F)(F)F)C1=O)NCCc1c[nH]c2ccccc12` [5n] is 3.8%.
Same read-out and setting: the figure for `O=C(CN1C(=O)S/C(=C\c2cccc(C(F)(F)F)c2)C1=O)NCCc1c[nH]c2ccccc12` [5o] is 4.5%; for `O=C(CN1C(=O)S/C(=C\c2ccc(C(F)(F)F)cc2)C1=O)NCCc1c[nH]c2ccccc12` [5p] it is 3%; for `COc1ccccc1/C=C1\SC(=O)N(CC(=O)NCCc2c[nH]c3ccccc23)C1=O` [5q] it is 1%.
On the same count and under the same terms, the same measure for `COc1cccc(/C=C2\SC(=O)N(CC(=O)NCCc3c[nH]c4ccccc34)C2=O)c1` [5r]: 2%.
Regarding `COc1ccc(/C=C2\SC(=O)N(CC(=O)NCCc3c[nH]c4ccccc34)C2=O)cc1` [5s], the inhibition at 32 µM at Mushroom tyrosinase was 1%.
On the same count and under the same terms, the figure for `O=C(CN1C(=O)S/C(=C\c2ccccc2O)C1=O)NCCc1c[nH]c2ccccc12` [5t] is 26.9%; for `O=C(CN1C(=O)S/C(=C\c2cccc(O)c2)C1=O)NCCc1c[nH]c2ccccc12` [5u] it is 36.2%; for `O=C(CN1C(=O)S/C(=C\c2ccc(O)cc2)C1=O)NCCc1c[nH]c2ccccc12` [5v] it is 24.6%.
On the same count and under the same terms, the same measure for `N#Cc1ccc(/C=C2\SC(=O)N(CC(=O)NCCc3c[nH]c4ccccc34)C2=O)cc1` [5x]: 24.6%; for `O=C(CN1C(=O)S/C(=C\c2cccc([N+](=O)[O-])c2)C1=O)NCCc1c[nH]c2ccccc12` [5y]: 19.8%.
`O=C(CN1C(=O)S/C(=C\c2ccc([N+](=O)[O-])cc2)C1=O)NCCc1c[nH]c2ccccc12` [5z] registered an inhibition at 32 µM against Mushroom tyrosinase of 19.1%.
As to `O=c1cc(CO)occ1O` [Kojic acid, reference compound], the “melanogenesis in B16F10 cells” value in data set [1] was “could inhibit”. The “tyrosinase activity in zebrafish” value in data set [2] was “could reduce the tyrosinase activity in zebrafish”. The cellular tyrosinase activity entry in data set [3] is on record as “could inhibit”. In data set [4] (Image J), the “grayscale values of whole embryos” value was “decrease in grayscale values”. Moreover, the “pigmentation of embryo (eyes, yolk sac, notum)” value in data set [4] (embryo photos) was “pigmentation decrease”. Also, the “effect on cells' viability” value in the data set with B16F10 cells is “obvious effects”.
